Experiments:
Type in all cases: in vivo
[1] = tested on: Amaranthus viridis (AMAVI); assay: B2 drilled field trial Brazil, post-emergence, AMAVI; settings: 100=total damage, 0=no damage; for AMAVI 7DAA Observed: 7 days after application; for AMAVI 30 DAA Observed: 30 days after application
Description: (§1) Seeds of a variety of test species were used in drilled field trials to look at the control of important weed species present in corn crops as well as the effect on soybean (a volunteer crop in corn). Trials were carried out in Brazil in the summer season.
(§2) Plot size was 10-12 m^2, and two replicates were carried out per treatment. Plants were treated post-emergence at the 4 leaf stage. Fungicides and insecticides were used as necessary for plant health. The test was evaluated at 7 and 30 days after application (Amaranthus viridis (AMAVI), Bidens pilosa (BIDPI), Euphorbia heterophylla (EPPHL)) and 9 and 37 days after application (Brachiaria plantaginea (BRAPL) and soybean (Glycine max GLXMA) with 100=total damage to plant and 0=no damage to plant.
(§3) Expected results were calculated using the Colby Formula.

Bidens pilosa (BIDPI) [2] = assay: B2 drilled field trial Brazil, post-emergence, BIDPI; settings: 100=total damage, 0=no damage; for BIDPI 7DAA Observed: 7 days after application; for BIDPI 30 DAA Observed: 30 days after application
Description: as §1, §2, §3

[3] = tested on: Euphorbia heterophylla (EPPHL); assay: B2 drilled field trial Brazil, post-emergence, EPPHL; settings: 100=total damage, 0=no damage; for EPPHL 7DAA Observed: 7 days after application; for EPPHL 30 DAA Observed: 30 days after application
Description: as §1, §2, §3

[4] = tested on: Brachiaria plantaginea (BRAPL); assay: B2 drilled field trial Brazil, post-emergence, BRAPL; settings: 100=total damage, 0=no damage; for BRAPL 9DAA Observed: 9 days after application; for BRAPL 37 DAA Observed: 37 days after application
Description: as §1, §2, §3

[5] = tested on: soybean (Glycine max GLXMA); assay: B2 drilled field trial Brazil, post-emergence, soybean; settings: 100=total damage, 0=no damage; for GLXMA 9DAA Observed: 9 days after application; for GLXMA 37 DAA Observed: 37 days after application
Description: as §1, §2, §3

[6] = tested on: Amaranthus retroflexus (AMARE); assay: B3 drilled field trial Brazil, post-emergence, AMARE; settings: 28 days after application, 100=total damage, 0=no damage
Description: (§4) Seeds of a variety of test species were used in drilled field trials to look at the control of important weed species present in corn crops as well as the effect on soybean (a volunteer crop in corn). Trials were carried out in Brazil in the summer season and the second season.
(§5) Plot size was 10-15 m^2, and two replicates were carried out per treatment. Plants were treated post-emergence between the 2 and 4 leaf stage. Species tested were Amaranthus retroflexus (AMARE), Ipomoea grandifolia (IAQGR), Digitaria horizontalis (DIGHO), Bidens pilosa (BIDPI), Eleusine indica (ELEIN), Brachiaria decumbens (BRADC), Centrus echinatus (CCHEC), Euphorbia heterophylla (EPPHL), Brachiaria plantaginea (BRAPL) and Glycine max (GLXMA; soybean). Fungicides and insecticides were used as necessary for plant health. The test was evaluated at 28 days after application with 100=total damage to plant and 0=no damage to plant.
as §3

[7] = tested on: Ipomoea grandifolia (IAQGR); assay: B3 drilled field trial Brazil, post-emergence, IAQGR; settings: 28 days after application
Description: as §4, §5, §3

[8] = tested on: Digitaria horizontalis (DIGHO); assay: B3 drilled field trial Brazil, post-emergence, DIGHO; settings: 28 days after application
Description: as §4, §5, §3

Bidens pilosa (BIDPI) [9] = assay: B3 drilled field trial Brazil, post-emergence, BIDPI; settings: 28 days after application
Description: as §4, §5, §3

Eleusine indica (ELEIN) = assay: B3 drilled field trial Brazil, post-emergence, ELEIN; settings: 28 days after application
Description: as §4, §5, §3

[10] = tested on: Brachiaria decumbens (BRADC); assay: B3 drilled field trial Brazil, post-emergence, BRADC; settings: 28 days after application
Description: as §4, §5, §3

[11] = tested on: Centrus echinatus (CCHEC); assay: B3 drilled field trial Brazil, post-emergence, CCHEC; settings: 28 days after application
Description: as §4, §5, §3

[12] = tested on: Euphorbia heterophylla (EPPHL); assay: B3 drilled field trial Brazil, post-emergence, EPPHL; settings: Summer season, 28 days after application
Description: as §4, §5, §3

[13] = tested on: Brachiaria plantaginea (BRAPL); assay: B3 drilled field trial Brazil, post-emergence, BRAPL; settings: Summer season, 28 days after application
Description: as §4, §5, §3

[14] = tested on: Glycine max (GLXMA; soybean); assay: B3 drilled field trial Brazil, post-emergence, soybean; settings: 28 days after application
Description: as §4, §5, §3

Structure (SMILES): CS(=O)(=O)c1ccc(C(=O)C2C(=O)CCCC2=O)c([N+](=O)[O-])c1 [Mesotrione, reference compound]
- AMAVI 7DAA Observed ([1]; 75 g ai/ha): 25
- AMAVI 30 DAA Observed ([1]; 75 g ai/ha): 30
- AMAVI 7DAA Observed ([1]; 125 g ai/ha): 65
- AMAVI 30 DAA Observed ([1]; 125 g ai/ha): 50
- BIDPI 7DAA Observed (Bidens pilosa (BIDPI) [2]; 75 g ai/ha): 28
- BIDPI 30 DAA Observed (Bidens pilosa (BIDPI) [2]; 75 g ai/ha): 28
- BIDPI 7DAA Observed (Bidens pilosa (BIDPI) [2]; 125 g ai/ha): 40
- BIDPI 30 DAA Observed (Bidens pilosa (BIDPI) [2]; 125 g ai/ha): 40
- EPPHL 7DAA Observed ([3]; 75 g ai/ha): 30
- EPPHL 30 DAA Observed ([3]; 75 g ai/ha): 20
- EPPHL 7DAA Observed ([3]; 125 g ai/ha): 40
- EPPHL 30 DAA Observed ([3]; 125 g ai/ha): 35
- BRAPL 9DAA Observed ([4]; 75 g ai/ha): 53
- BRAPL 37 DAA Observed ([4]; 75 g ai/ha): 7
- BRAPL 9DAA Observed ([4]; 125 g ai/ha): 65
- BRAPL 37 DAA Observed ([4]; 125 g ai/ha): 0
- GLXMA 9DAA Observed ([5]; 75 g ai/ha): 45
- GLXMA 37 DAA Observed ([5]; 75 g ai/ha): 65
- GLXMA 9DAA Observed ([5]; 125 g ai/ha): 55
- GLXMA 37 DAA Observed ([5]; 125 g ai/ha): 88
- AMARE Second season Observed ([6]; 75 g ai/ha): 40
- AMARE Summer season Observed ([6]; 75 g ai/ha): 73
- AMARE Second season Observed ([6]; 125 g ai/ha): 54
- AMARE Summer season Observed ([6]; 125 g ai/ha): 85
- Observed damage (100=total damage to plant, 0=no damage) ([7]; Second season, 75 g ai/ha): 79
- Observed damage (100=total damage to plant, 0=no damage) ([7]; Second season, 125 g ai/ha): 87
- Observed damage (100=total damage to plant, 0=no damage) ([7]; Summer season, 75 g ai/ha): 63
- Observed damage (100=total damage to plant, 0=no damage) ([7]; Summer season, 125 g ai/ha): 96
- Observed damage (100=total damage to plant, 0=no damage) ([8]; Second season, 75 g ai/ha): 40
- Observed damage (100=total damage to plant, 0=no damage) ([8]; Second season, 125 g ai/ha): 70
- Observed damage (100=total damage to plant, 0=no damage) ([8]; Summer season, 75 g ai/ha): 50
- Observed damage (100=total damage to plant, 0=no damage) ([8]; Summer season, 125 g ai/ha): 72
- Observed damage (100=total damage to plant, 0=no damage) (Bidens pilosa (BIDPI) [9]; Second season, 75 g ai/ha): 68
- Observed damage (100=total damage to plant, 0=no damage) (Bidens pilosa (BIDPI) [9]; Second season, 125 g ai/ha): 70
- Observed damage (100=total damage to plant, 0=no damage) (Bidens pilosa (BIDPI) [9]; Summer season, 75 g ai/ha): 53
- Observed damage (100=total damage to plant, 0=no damage) (Bidens pilosa (BIDPI) [9]; Summer season, 125 g ai/ha): 74
- Observed damage (100=total damage to plant, 0=no damage) (Eleusine indica (ELEIN); Second season, 75 g ai/ha): 20
- Observed damage (100=total damage to plant, 0=no damage) (Eleusine indica (ELEIN); Second season, 125 g ai/ha): 50
- Observed damage (100=total damage to plant, 0=no damage) (Eleusine indica (ELEIN); Summer season, 75 g ai/ha): 53
- Observed damage (100=total damage to plant, 0=no damage) (Eleusine indica (ELEIN); Summer season, 125 g ai/ha): 58
- Observed damage (100=total damage to plant, 0=no damage) ([10]; Second season, 75 g ai/ha): 10
- Observed damage (100=total damage to plant, 0=no damage) ([10]; Second season, 125 g ai/ha): 13
- Observed damage (100=total damage to plant, 0=no damage) ([10]; Summer season, 75 g ai/ha): 48
- Observed damage (100=total damage to plant, 0=no damage) ([10]; Summer season, 125 g ai/ha): 50
- Observed damage (100=total damage to plant, 0=no damage) ([11]; Second season, 75 g ai/ha): 0
- Observed damage (100=total damage to plant, 0=no damage) ([11]; Second season, 125 g ai/ha): 0
- Observed damage (100=total damage to plant, 0=no damage) ([11]; Summer season, 75 g ai/ha): 0
- Observed damage (100=total damage to plant, 0=no damage) ([11]; Summer season, 125 g ai/ha): 0
- Observed damage (100=total damage to plant, 0=no damage) ([12]; 75 g ai/ha): 40
- Observed damage (100=total damage to plant, 0=no damage) ([12]; 125 g ai/ha): 58
- Observed damage (100=total damage to plant, 0=no damage) ([13]; 75 g ai/ha): 15
- Observed damage (100=total damage to plant, 0=no damage) ([13]; 125 g ai/ha): 28
- Observed damage (100=total damage to plant, 0=no damage) ([14]; Second season, 75 g ai/ha): 83
- Observed damage (100=total damage to plant, 0=no damage) ([14]; Second season, 125 g ai/ha): 89
- Observed damage (100=total damage to plant, 0=no damage) ([14]; Summer season, 75 g ai/ha): 69
- Observed damage (100=total damage to plant, 0=no damage) ([14]; Summer season, 125 g ai/ha): 92

Source: patent US20190239509A1, “METHOD OF CONTROLLING PLANTS” (SYNGENTA PARTICIPATIONS AG, priority 2016, published 2019)
